Experimental data taken from US11203633B2, “Polynucleotides encoding antibodies or antigen binding fragments thereof that bind pseudomonas perv” (priority 2011, dated 2021).

What was measured:
[1] = test system: P. aeruginosa strains (PAO1, 33356, 6294, 6077, 6206, PA103A); assay: Acute pneumonia model in mice, survival; assay type: in vivo, Pseudomonas aeruginosa; conditions: for protection from challenge: 45 and 15 mg/kg; for survival compared to controls: 45, 15, 5 mg/kg 24 hours before infection
Method: (§1) Antibodies or PBS were administered 24 hours before infection in each model. P. aeruginosa acute pneumonia, keratitis, and thermal injury infection models were performed as described (DiGiandomenico, A., et al., Proc Natl Acad Sci USA 104, 4624-4629 (2007)), with modifications. In the acute pneumonia model, BALB/c mice (The Jackson Laboratory) were infected with P. aeruginosa strains suspended in a 0.05 ml inoculum. In the thermal injury model, CF-1 mice (Charles River) received a 10% total body surface area burn with a metal brand heated to 92° C. for 10 seconds. Animals were infected subcutaneously with P. aeruginosa strain 6077 at the indicated dose. For organ burden experiments, acute pneumonia was induced in mice followed by harvesting of lungs, spleens, and kidneys 24 hours post-infection for determination of CFU.
The in vivo effect of administration of an anti-PcrV antibodies was studied in mice using an acute pneumonia model. Groups of mice were treated with either increasing concentrations of the V2L2 antibody, a positive control anti-PcrV antibody (mAb166), or a negative control (R347), as shown in FIG. 13 (A-B). Groups of mice were also treated with either increasing concentrations of the V2L2 antibody, the PcrV antibody PcrV-02, or a negative control (R347), as shown in FIG. 13 (C-D). Twenty-four hours after treatment, all mice were infected with 5×10^7 CFU (C) Pseudomonas aeruginosa 6294 (06) or (D) PA103A (O11).
Groups of mice were treated with either increasing concentrations of the 11A6, 3G5 or V2L7, the same concentrations of 29D2, 1F3, 1E6, V2L2, LE10, SH3, 4A8, 2H3, or 21F1, increasing concentrations of the 29D2, increasing concentrations of the V2L2, the PcrV antibody PcrV-02, or a negative control (R347), as shown in FIG. 13 (E-H). Mice were injected intraperitoneally (IP) with mAbs 24 hours prior to intranasal infection with Pseudomonas strain 6077 (1×10^6 CFU/animal).

[2] = test system: P. aeruginosa strain 6077 (O11-cytotoxic); assay: Corneal infection (ocular keratitis) model in mice; assay type: in vivo, Pseudomonas aeruginosa
[3] = test system: luminescent P. aeruginosa serogroup 05 strain (PAO1.lux); assay: Opsonophagocytic killing (OPK) assay, PAO1.lux; assay type: cell-based, Pseudomonas aeruginosa
Method: This example describes the evaluation of prioritized human IgG1 antibodies to promote OPK of P. aeruginosa. […] OPK assays were performed as described in (DiGiandomenico, A., et al., Infect Immun 72, 7012-7021 (2004)), with modifications. Briefly, assays were performed in 96-well plates using 0.025 ml of each OPK component; P. aeruginosa strains; diluted baby rabbit serum; differentiated HL-60 cells; and monoclonal antibody. In some OPK assays, luminescent P. aeruginosa strains, which were constructed as described (Choi, K. H., et al., Nat Methods 2, 443-448 (2005)), were used. Luminescent OPK assays were performed as described above but with determination of relative luciferase units (RLUs) using a Perkin Elmer ENVISION Multilabel plate reader (Perkin Elmer).

[4] = test system: P. aeruginosa strains (PAO1, 33356, 6294, 6077, 6206); assay: Acute pneumonia model in mice, organ burden (CFU in lung, spleen, kidneys); assay type: in vivo, Pseudomonas aeruginosa
Method: as §1
Organ burden of Pseudomonas-infected mice was also studied in response to administration of V2L2. FIG. 14 (A) Mice were treated with either 1 mg/kg R347 (control), or 1 mg/kg, 0.2 mg/kg, or 0.07 mg/kg of V2L2 and then were infected intranasally with 1.2×10^6 cfu of Pseudomonas 6206. FIG. 14 (B) Mice were also treated with either 15 mg/kg R347 (negative control); 15.0 mg/kg, 5.0 mg/kg, or 1.0 mg/kg mAb166 (positive control); or 5.0 mg/kg, 1.0 mg/kg, or 0.2 mg/kg V2L2 and then were infected intranasally with 5.5×10^6 cfu of Pseudomonas 6206.
The in vivo effect of combination administration of anti-Psl and anti-PcrV binding domains was further studied in mice using the antibodies V2L2 and WapR-004 (RAD). Groups of mice were treated with R347 (2.1 mg/kg—negative control), V2L2 (0.1 mg/kg), W4-RAD (0.5 mg/kg), or V2L2/W4 combination (either 0.1, 0.5, 1.0 or 2.0 mg/kg each). Twenty-four hours post-administration of antibody, all mice were infected with an inoculum containing 5.25×10^5 cfu 6206 (O11-ExoU+). Twenty-four hours post infection, lungs, spleens, and kidneys were harvested, homogenized, and plated for colony forming unit (CFU) identification per gram of tissue.

Cam-003: anti-Psl human IgG1 monoclonal antibody; VH SEQ ID NO:1, VL SEQ ID NO:2
survival vs. R347, Log-rank test P ([1]; 6077 1×10^6 CFU, 5 mg/kg, FIG. 6D): 0.0001 | survival vs. R347, Log-rank test P ([1]; 6294 7×10^6 CFU, 5 mg/kg, FIG. 6C): 0.0212 | survival vs. R347, Log-rank test P ([1]; 6294 7×10^6 CFU, 15 mg/kg, FIG. 6C): 0.0019 | survival vs. R347, Log-rank test P ([1]; 6294 7×10^6 CFU, 45 mg/kg, FIG. 6C): 0.0007 | survival vs. R347, Log-rank test P ([1]; 33356 3×10^7 CFU, 5 mg/kg, FIG. 6B): 0.0373 | survival vs. R347, Log-rank test P ([1]; 33356 3×10^7 CFU, 15 mg/kg, FIG. 6B): 0.0012 | survival vs. R347, Log-rank test P ([1]; 33356 3×10^7 CFU, 45 mg/kg, FIG. 6B): 0.0012 | survival vs. R347, Log-rank test P ([1]; PAO1 1.6×10^7 CFU, 5 mg/kg, FIG. 6A): 0.0033 | survival vs. R347, Log-rank test P ([1]; PAO1 1.6×10^7 CFU, 15 mg/kg, FIG. 6A): 0.0003 | protection from challenge ([1]; cytotoxic strain 6077, FIG. 6D): complete protection | survival ([1]; strain 6077, 5 mg/kg, FIG. 6D): 90% | survival compared to controls ([1]; strain 6294, FIG. 6C): significant concentration-dependent survival | survival ([1]; strain 33356, 5 mg/kg, FIG. 6B): 80% | protection from challenge ([1]; strain 33356, FIG. 6B): complete protection | survival compared to controls ([1]; strain PAO1, FIG. 6A): significant concentration-dependent survival | difference vs control IgG1 (pathology scores / viable CFU), Mann-Whitney U-test P ([2]; 15 mg/kg, FIG. 8C): 0.0003 | difference vs control IgG1 (pathology scores / viable CFU), Mann-Whitney U-test P ([2]; 15 mg/kg, FIG. 8D): 0.0015 | difference vs control IgG1 (pathology scores / viable CFU), Mann-Whitney U-test P ([2]; 45 mg/kg, FIG. 8A): 0.0001 | corneal pathology and bacterial counts vs negative control-treated animals ([2]; 6077, antibody 24 hours prior to infection, FIG. 8A-D, F-G): significantly less pathology and reduced bacterial counts in total eye homogenates | OPK EC50 ([3]; FIG. 9A, unit inferred): 0.06 µg/mL | OPK activity (killing of PAO1.lux) ([3]; purified human IgG1 mAbs from phage panning, FIG. 2A): superior OPK activity | viable CFU vs. R347, Mann-Whitney U-test P ([4]; 6077 1×10^6 CFU, lung, 45 mg/kg, FIG. 7D): 0.0005 | viable CFU vs. R347, Mann-Whitney U-test P ([4]; 6077, kidneys, 5 mg/kg, FIG. 7D): 0.0021 | viable CFU vs. R347, Mann-Whitney U-test P ([4]; 6077, kidneys, 15 mg/kg, FIG. 7D): 0.0355 | viable CFU vs. R347, Mann-Whitney U-test P ([4]; 6077, kidneys, 45 mg/kg, FIG. 7D): 0.0191 | viable CFU vs. R347, Mann-Whitney U-test P ([4]; 6077, lung, 5 mg/kg, FIG. 7D): 0.0007 | viable CFU vs. R347, Mann-Whitney U-test P ([4]; 6077, lung, 15 mg/kg, FIG. 7D): 0.0003 | viable CFU vs. R347, Mann-Whitney U-test P ([4]; 6077, spleen, 5 mg/kg, FIG. 7D): 0.0089 | viable CFU vs. R347, Mann-Whitney U-test P ([4]; 6077, spleen, 15 mg/kg, FIG. 7D): 0.0089 | viable CFU vs. R347, Mann-Whitney U-test P ([4]; 6077, spleen, 45 mg/kg, FIG. 7D): 0.0015 | viable CFU vs. R347, Mann-Whitney U-test P ([4]; 6294 6.25×10^6 CFU, lung, 5 mg/kg, FIG. 7C): 0.0068 | viable CFU vs. R347, Mann-Whitney U-test P ([4]; 6294 6.25×10^6 CFU, lung, 15 mg/kg, FIG. 7C): 0.0039 | viable CFU vs. R347, Mann-Whitney U-test P ([4]; 6294 6.25×10^6 CFU, lung, 45 mg/kg, FIG. 7C): 0.0003 | viable CFU vs. R347, Mann-Whitney U-test P ([4]; 6294 6.25×10^6 CFU, spleen, 5 mg/kg, FIG. 7C): 0.0012 | viable CFU vs. R347, Mann-Whitney U-test P ([4]; 6294 6.25×10^6 CFU, spleen, 15 mg/kg, FIG. 7C): 0.0230 | viable CFU vs. R347, Mann-Whitney U-test P ([4]; 6294 6.25×10^6 CFU, spleen, 45 mg/kg, FIG. 7C): 0.0057 | viable CFU vs. R347, Mann-Whitney U-test P ([4]; 33356 1×10^7 CFU, lung, 45 mg/kg, FIG. 7B): 0.0010 | viable CFU vs. R347, Mann-Whitney U-test P ([4]; 33356, lung, 5 mg/kg, FIG. 7B): 0.0045 | viable CFU vs. R347, Mann-Whitney U-test P ([4]; PAO1 1.1×10^7 CFU, lung, 45 mg/kg, FIG. 7A): 0.0015 | viable CFU vs. R347, Mann-Whitney U-test P ([4]; PAO1, kidneys, 15 mg/kg, FIG. 7A): 0.0056 | viable CFU vs. R347, Mann-Whitney U-test P ([4]; PAO1, kidneys, 45 mg/kg, FIG. 7A): 0.0092 | viable CFU vs. R347, Mann-Whitney U-test P ([4]; PAO1, lung, 5 mg/kg, FIG. 7A): 0.0015 | viable CFU vs. R347, Mann-Whitney U-test P ([4]; PAO1, lung, 15 mg/kg, FIG. 7A): 0.0021 | viable CFU vs. R347, Mann-Whitney U-test P ([4]; PAO1, spleen, 15 mg/kg, FIG. 7A): 0.0367 | viable CFU vs. R347, Mann-Whitney U-test P ([4]; PAO1, spleen, 45 mg/kg, FIG. 7A): 0.0120 | organ burden, dose dependence ([4]; cytotoxic strain 6077, FIG. 7D): the low dose was as effective as the higher dose | dissemination to the spleen and kidneys ([4]; mice infected with PAO1, 6294 and 6077, FIG. 7A, C, D): marked effect in reducing dissemination to the spleen and kidneys | lung burden ([4]; strains PAO1, 33356, 6294, 6077, FIG. 7A-D): effective at reducing P. aeruginosa lung burden against all four strains tested
